For assay [1], the system named is MRSA (NRS384 strain of USA300). The assay can be described thus: MIC determination for extracellular bacteria. It is filed as cell-based. Particulars: Staphylococcus aureus, read-out: Extracellular MRSA MIC. The protocol:
Dilutions of the antibiotic were made in quadruplicate in 96 well culture dishes. MRSA (NRS384 strain of USA300) was taken from an exponentially growing culture and diluted to 1×10^4 CFU/mL. Bacteria was cultured in the presence of antibiotic for 18-24 hours with shaking at 37° C. and bacterial growth was determined by reading the Optical Density (OD) at […]. The MIC was determined to be the dose of antibiotic that inhibited bacterial growth by >90%.

Assay [2] concerns MRSA (NRS384 strain of USA300). Put plainly: MIC determination / killing of intracellular bacteria in mouse peritoneal macrophages. Format: cell-based, Staphylococcus aureus. Particulars: for killing of intracellular MRSA sequestered inside macrophages: doses including clinically achieveable serum levels.
Assay [3] relates to MRSA. The assay can be described thus: Intravenous infection model, established infection in CB17.SCID mice. It is filed as in vivo. Particulars: treated 1 day after infection; AAC 50 mg/Kg, antibiotic 0.5 mg/Kg; kidneys day 4. As for the experimental part: Mice were treated with the AAC 30 minutes after infection. To better replicate conditions likely to occur in MRSA patients seeking treatment, it was determined whether the AAC is effective at clearing an established infection and that linking of the antibiotic to an anti-S. aureus antibody provides a definite advantage over treatment with antibiotic alone. To this end, the efficacy of AAC with an equivalent dose of the antibiotic dimethyl-pipBOR was compared.
One day after infection, the mice were treated with 50 mg/Kg of S4497 antibody, 50 mg/Kg of S4497 dimethyl-pipBOR AAC 105 or with 0.5 mg/Kg of dimethyl-pipBOR antibiotic 7, the equivalent dose of antibiotic that is contained in 50 mg/Kg of AAC). Mice were sacrificed 4 days after infection and the total number of surviving bacteria per mouse (2 kidneys pooled) was determined by plating.
7 week old female mice were used for all in vivo experiments and infections were carried out by intravenous injection into the tail vein. A/J mice (Jackson Lab) were infected with a dose of 2×10^6 CFU. Balb/c mice (Charles River Laboratories, Hollister, Calif.) were infected with a dose of 2×10^7 CFU. […] The total number of bacteria recovered per mouse (2 kidneys) was determined by plating serial dilutions of the tissue homogenate in PBS 0.05% Tween on Tryptic Soy Agar with 5% defibrinated sheep blood.

The test system of assay [4] is USA300 strain of MRSA (NRS384). Put plainly: In vitro macrophage assay (intracellular killing of opsonized MRSA). Format: cell-based, Staphylococcus aureus. To be noted: for Macrophage assay activity: in vitro macrophage assay (Example 18), grades 0, weak, 1+ not defined; for CFU/well after treatment: 100 μg/mL, reduced from 10,000 CFU/well. As for the experimental part:
(§1) Peritoneal macrophages were isolated from the peritoneum of 6-8 week old Balb/c mice (Charles River Laboratories, Hollister, Calif.). To increase the yield of macrophages, mice were pre-treated by intraperitoneal injection with 1 mL of thioglycolate media (Becton Dickinson). The thioglycolate media was prepared at a concentration of 4% in water, sterilized by autoclaving, and aged for 20 days to 6 months prior to use. Peritoneal macrophages were harvested 4 days post treatment with thioglycolate by washing the peritoneal cavity with cold phosphate buffered saline. Macrophages were plated in Dulbecco's Modified Eagle Medium (DMEM) supplemented with 10% Fetal Calf Serum, and 10 mM HEPES, without antibiotics, at a density of 4×10^5 cells/well in 24 well culture dishes. Macrophages were cultured over night to permit adherence to the plate. This assay was also utilized to test intracellular killing in non-phagocytic cell types. MG63 (CRL-1427) and A549 (CCL185) cell lines were obtained from ATCC and maintained in RPMI 1640 tissue culture media supplemented with 10 mM Hepes and 10% Fetal Calf Serum (RPMI-10). HUVEC cells were obtained from Lonza and maintained in EGM Endothelial Cell Complete Media (Lonza, Walkersville, Md.).

The test system of assay [5] is MRSA (USA300 strain). The assay can be described thus: Intracellular killing in macrophages and non-phagocytic cell types (MG63, A549, HUVEC). Format: cell-based, Staphylococcus aureus. To be noted: 50 μg/mL, macrophages.
Excerpt: MRSA is able to invade a number of non-phagocytic cell types including osteoblasts and various epithelial and endothelial cell types (Garzoni and Kelly, (2008) Trends in Microbiology). MRSA is able to infect an osteoblast cell line (MG63), an airway epithelial cell line (A549) and primary cultures of human umbilical vein endothelial cells (HUVEC). […] The dashed line indicates the limit of detection for the assay.
as §1, with “MG63 (CRL-1427) and A549 (CCL185) cell lines were obtained from ATCC and maintained in RPMI 1640 tissue culture media supplemented with 10 mM Hepes and 10% Fetal Calf Serum (RPMI-10). HUVEC cells were obtained from Lonza and maintained in EGM Endothelial Cell Complete Media (Lonza, Walkersville, Md.).” left out

The subject of a further assay is MRSA (USA300). The assay can be described thus: Peritonitis model (intraperitoneal infection). Format: in vivo, A/J mice. To be noted: 50 mg/Kg thirty minutes after infection; 2 days. The text has this:
An in vivo peritonitis model in mice was established to test the efficacy of AAC. In this model, mice are infected by intraperitoneal injection (I.P.) of MRSA and the bacterial load is monitored 2 days after infection in the peritoneal fluid and kidney. Bacteria harvested from the peritoneum could be found either as free floating extracellular bacteria or internalized inside peritoneal cells—primarily neutrophils and macrophages—that are recruited to the site of the infection.
Intraperitoneal infection model in A/J mice. Mice were infected with 5×10^7 CFU of MRSA by intraperitoneal injection and treated with 50 mg/Kg of S4497 antibody alone or with 50 mg/Kg of the S4497-pipBOR AAC 102 by intraperitoneal injection (protocol 11-2032A). Mice were sacrificed 2 days post infection and the total bacterial load was assessed in the peritoneal supernatant (Extracellular bacteria), peritoneal cells (Intracellular bacteria) or in the kidney.
A/J mice were infected with USA300 and administered 50 mg/Kg of either S4497 antibody or S4497-pipBOR AAC 102 thirty minutes after infection. After 2 days, the mice were sacrificed and bacterial loads were monitored in the peritoneal wash and the kidney. To distinguish between extracellular and intracellular bacteria, the peritoneal wash was centrifuged gently to separate the supernatant, containing extracellular bacteria, and the peritoneal cells. […]

Assay [6] has as its system MRSA (USA300 strain). Put plainly: Intravenous infection model in A/J mice. It is filed as in vivo.
The subject of assay [7] is MRSA. Put plainly: Cathepsin release / growth inhibition assay. It is filed as cell-based, S. aureus. Particulars: overnight culture, up to 10 μg/mL of AAC. The protocol: An AAC comprising antibody rF1, which binds to a family of cell wall associated proteins was conjugated to a rifamycin derivative. S. aureus (Newman strain) was treated with various doses of the rF1-AAC or with equivalent doses of either antibody alone, rifampicin alone or a mixture of antibody and free rifampicin to permit antibody binding to the bacteria (opsonization) and after 1 hour incubation the opsonized bacteria were fed to macrophages (FIG. 7A).
See: page 863 of Dubowchik et al (2002) Bioconj. Chem. 13:855-869, incorporated by reference for the purposes of this assay. Cathepsin B (from bovine spleen, SIGMA C7800) was added at 10 μg/mL and the samples were incubated for 1 hour at 37° C. As a control, AAC were incubated in buffer alone. The reaction was stopped by addition of 10 volumes of bacterial growth media, Tryptic Soy Broth pH 7.4 (TSB). To estimate the total release of active antibiotic, serial dilutions of the reaction mixture were made in quadruplicate in TSB in 96 well plates and the USA300 strain of S. aureus was added to each well at a final density of 2×10^3 CFU/mL. The cultures were incubated over night at […] with shaking and bacterial growth was measured by reading absorbance at 630 nm using a plate reader.

≈ marks a conversion by molar mass, not a printed value. Entries after “also recorded” stand apart in the source; their conditions may differ.

For the molecule `CCCCCCCCCC(=O)N[C@@H](Cc1c[nH]c2ccccc12)C(=O)N[C@H](CC(N)=O)C(=O)N[C@@H](CC(=O)O)C(=O)N[C@@H]1C(=O)NCC(=O)N[C@@H](CCCN)C(=O)N[C@@H](CC(=O)O)C(=O)N[C@H](C)C(=O)N[C@@H](CC(=O)O)C(=O)NCC(=O)N[C@H](CO)C(=O)N[C@@H]([C@H](C)CC(=O)O)C(=O)N[C@@H](CC(=O)c2ccccc2N)C(=O)O[C@@H]1C` [Daptomycin], the MIC in assay [1] was 4 µg/mL (≈ 2.47 µM); in assay [2] (Staphylococcus aureus, 24 h, MRSA inside mouse peritoneal macrophages, […]), greater than 100 µg/mL. In assay [2], the “killing of intracellular MRSA sequestered inside macrophages” value is given as “failed to kill”. Consider `CC(=O)NC[C@H]1CN(c2ccc(N3CCOCC3)c(F)c2)C(=O)O1` [Linezolid], for which the “killing of intracellular MRSA sequestered inside macrophages” value in assay [2] is reported as “failed to kill”. As for `CO[C@H]1/C=C/O[C@@]2(C)Oc3c(C)c(O)c4c(=O)c(c5oc6cc(N7CCC(N(C)C)CC7)cc(O)c6nc-5c4c3C2=O)NC(=O)/C(C)=C\C=C\[C@H](C)[C@H](O)[C@@H](C)[C@@H](O)[C@@H](C)[C@H](OC(C)=O)[C@@H]1C` [dimethyl-pipBOR, dimethylpiperidyl benzoxazino rifamycin], in assay [2], the “killing of intracellular MRSA as free antibiotics relative to rifampicin” value is “more potent than rifampicin”. In the assay with MRSA [3], the “efficacy against established infection” value was “failed to clear the infection”. In the case of “piperidyl benzoxazino rifamycin [pipBOR]”, the “killing of intracellular MRSA as free antibiotics relative to rifampicin” value in assay [2] is listed as “more potent than rifampicin”. In the case of “thio-S4497 WT (V8), LC V205C-(thiostrepton) [AAC 128]”, the Macrophage assay activity in assay [4] came out at 0. The same measure, in the same setting: for “thio-S4497-HC-A118C-MC-vc-PAB-(clindamycin) [AAC 101]” the value was 0; for “thio-S4497-HC-A118C-MC-vc-PAB-(novobiocin) [AAC 102]”, 0; for “thio-S4497-HC-A118C-MC-vc-PAB-(retapamulin) [AAC 103]”, 0. Regarding “thio-S4497-HC-A118C-MC-vc-PAB-(triclosan) [AAC 109]”, the Macrophage assay activity in assay [4] is listed as 0. Take “thio-S4497-HC-A118C-MC-vc-PABC-(GSK-2140944) [AAC 105]”: in assay [4], the Macrophage assay activity is recorded as 0.

In assay [4], “thio-S4497-HC-A118C-MC-vc-PABC-(ampicillin) [AAC 113]” yielded a Macrophage assay activity of 0. In assay [4], “thio-S4497-HC-A118C-MC-vc-PABC-(daptomycin) [AAC 104]” had a Macrophage assay activity of 0.

As for “thio-S4497-HC-A118C-MC-vc-PABC-(pipBOR) [S4497-pipBOR AAC 102]”, the “intracellular killing of MRSA” value in the assay on MRSA (USA300 strain) [5] is “effectively killed”. In addition, the “clearance of infection (peritoneal wash and kidney)” value with MRSA (USA300) is recorded as “cleared the infection to below the limit of detection”. For the same molecule, in the assay on MRSA (USA300 strain) [6] (50 mg/Kg IV 30 minutes post infection, kidneys 4 days post infection), the “efficacy at 50 mg/Kg (kidney bacterial load)” value is listed as “cleared the infection in all of the mice tested; also recorded: effective”. In addition, the “efficacy at lower doses” value with MRSA (USA300 strain) [6] (doses below 50 mg/Kg down to 2 m/Kg, 30 minutes after infection) is given as “only partially efficacious”. Further, in the assay with MRSA [7], the “inhibition of bacterial growth by AAC not pre-treated with cathepsin B” value was “did not result in inhibition of bacterial growth”. For the molecule “thio-S4497-HC-A118C-MC-vc-PABC-(sitafloxacin) [AAC 107]”, in assay [4], the CFU/well after treatment entry is “about 5,000 CFU/well” and the Macrophage assay activity entry is on record as “weak”.

As for “thio-S4497-HC-A118C-MC-vc-PABC-(teicoplanin) [AAC 108]”, in assay [4], the CFU/well after treatment entry is listed as “about 500 CFU/well” and the Macrophage assay activity result is “weak”. On to “thio-S4497-v8-LC-V205C-(azithromycin) [AAC 121]”, for which the Macrophage assay activity in assay [4] was found to be 0. The molecule “thio-S4497-v8-LC-V205C-(thiostrepton) [AAC 141]” displayed a Macrophage assay activity in assay [4] of 0. In assay [4], “thio-S4497-v8-LC-V205C-MC-vc-PABC-(teicoplanin) [AAC 140]” displayed a Macrophage assay activity of 0. The same measure, in the same setting: for “thio-S4497-v8-LC-cys-MC-vc-PAB-(nosiheptide) [AAC 149]” the value was 0.

These data come from US9884126B2, “Anti-wall teichoic antibodies and conjugates” (priority 2013, dated 2018).
